According to the kinase profiling compilation of Christmann-Franck et al. (2016):

Legend:
Assay in all cases: KINOMEscan competition binding
Conditions in all cases: compound 10.0 µM
[1] = molecular target: INSRR (human) (UniProt P14616)
[2] = molecular target: CLK3 (human) (UniProt P49761)
[3] = molecular target: EPHA8 (human) (UniProt P29322)
[4] = molecular target: CSNK1G2 (human) (UniProt P78368)
[5] = molecular target: INSR (human) (UniProt P06213)
[6] = molecular target: DCLK3 (human) (UniProt Q9C098)
[7] = molecular target: TLK2 (human) (UniProt Q86UE8)
[8] = molecular target: MAPKAPK5 (human) (UniProt Q8IW41)
[9] = molecular target: STK32C (human) (UniProt Q86UX6)
[10] = molecular target: FYN (human) (UniProt P06241)
FYN (human), sequence (P06241 whole entry, looked up): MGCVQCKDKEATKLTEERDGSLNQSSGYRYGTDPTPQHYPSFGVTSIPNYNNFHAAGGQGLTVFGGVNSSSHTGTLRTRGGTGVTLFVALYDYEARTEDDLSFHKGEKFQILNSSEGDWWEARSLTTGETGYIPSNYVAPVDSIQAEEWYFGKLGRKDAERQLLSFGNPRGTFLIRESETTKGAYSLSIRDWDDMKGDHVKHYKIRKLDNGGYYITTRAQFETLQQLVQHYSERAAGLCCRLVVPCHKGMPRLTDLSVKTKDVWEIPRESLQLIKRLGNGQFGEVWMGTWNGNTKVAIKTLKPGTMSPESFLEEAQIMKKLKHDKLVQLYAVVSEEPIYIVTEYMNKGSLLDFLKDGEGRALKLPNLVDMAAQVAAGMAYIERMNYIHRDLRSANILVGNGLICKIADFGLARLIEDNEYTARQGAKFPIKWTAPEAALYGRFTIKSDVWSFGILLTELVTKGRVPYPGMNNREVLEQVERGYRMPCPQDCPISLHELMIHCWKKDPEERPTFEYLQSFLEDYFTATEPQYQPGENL

[11] = molecular target: ADCK3 (human) (UniProt Q8NI60)
[12] = molecular target: MAPK8 (human) (UniProt P45983)
[13] = molecular target: CSNK1G3 (human) (UniProt Q9Y6M4)
[14] = molecular target: NUAK1 (human) (UniProt O60285)
NUAK1 (human), sequence (O60285 whole entry, looked up): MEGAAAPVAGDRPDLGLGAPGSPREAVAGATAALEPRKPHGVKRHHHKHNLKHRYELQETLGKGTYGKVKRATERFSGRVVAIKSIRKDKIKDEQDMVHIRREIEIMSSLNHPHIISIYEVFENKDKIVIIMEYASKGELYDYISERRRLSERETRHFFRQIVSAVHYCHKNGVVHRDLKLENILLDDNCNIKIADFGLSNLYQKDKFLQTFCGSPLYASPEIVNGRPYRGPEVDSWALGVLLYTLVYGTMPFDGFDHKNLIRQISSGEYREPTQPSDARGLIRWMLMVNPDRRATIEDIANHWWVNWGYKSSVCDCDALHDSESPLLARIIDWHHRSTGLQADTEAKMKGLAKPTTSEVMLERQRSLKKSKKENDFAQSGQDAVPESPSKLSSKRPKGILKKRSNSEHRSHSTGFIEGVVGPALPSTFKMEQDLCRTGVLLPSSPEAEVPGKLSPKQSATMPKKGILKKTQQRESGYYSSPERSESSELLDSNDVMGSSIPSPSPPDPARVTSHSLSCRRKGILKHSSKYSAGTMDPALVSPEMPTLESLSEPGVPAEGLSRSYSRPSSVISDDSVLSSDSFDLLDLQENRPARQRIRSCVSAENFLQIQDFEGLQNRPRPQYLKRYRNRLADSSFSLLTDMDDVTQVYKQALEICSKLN

[15] = molecular target: PIK3CD (human) (UniProt O00329)
[16] = molecular target: CSK (human) (UniProt P41240)
[17] = molecular target: LIMK1 (human) (UniProt P53667)
LIMK1 (human), sequence (P53667 whole entry, looked up): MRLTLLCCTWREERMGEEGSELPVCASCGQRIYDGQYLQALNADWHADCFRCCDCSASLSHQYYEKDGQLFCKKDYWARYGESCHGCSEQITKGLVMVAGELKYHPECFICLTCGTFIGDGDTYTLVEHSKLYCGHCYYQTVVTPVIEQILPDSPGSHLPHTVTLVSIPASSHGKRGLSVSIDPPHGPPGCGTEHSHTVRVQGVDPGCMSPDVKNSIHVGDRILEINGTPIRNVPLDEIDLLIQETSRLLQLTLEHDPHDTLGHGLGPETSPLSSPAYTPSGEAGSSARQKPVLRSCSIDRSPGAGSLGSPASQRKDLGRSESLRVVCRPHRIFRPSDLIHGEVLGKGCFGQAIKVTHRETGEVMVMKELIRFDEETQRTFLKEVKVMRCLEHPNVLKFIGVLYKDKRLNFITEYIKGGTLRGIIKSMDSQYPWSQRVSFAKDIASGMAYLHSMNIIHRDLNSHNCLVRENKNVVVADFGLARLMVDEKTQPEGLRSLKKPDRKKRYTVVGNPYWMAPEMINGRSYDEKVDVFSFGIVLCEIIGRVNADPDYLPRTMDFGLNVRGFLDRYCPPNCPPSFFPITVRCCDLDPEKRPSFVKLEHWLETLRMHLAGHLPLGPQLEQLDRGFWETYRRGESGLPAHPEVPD

[18] = molecular target: AURKC (human) (UniProt Q9UQB9)
AURKC (human), sequence (Q9UQB9 whole entry, looked up): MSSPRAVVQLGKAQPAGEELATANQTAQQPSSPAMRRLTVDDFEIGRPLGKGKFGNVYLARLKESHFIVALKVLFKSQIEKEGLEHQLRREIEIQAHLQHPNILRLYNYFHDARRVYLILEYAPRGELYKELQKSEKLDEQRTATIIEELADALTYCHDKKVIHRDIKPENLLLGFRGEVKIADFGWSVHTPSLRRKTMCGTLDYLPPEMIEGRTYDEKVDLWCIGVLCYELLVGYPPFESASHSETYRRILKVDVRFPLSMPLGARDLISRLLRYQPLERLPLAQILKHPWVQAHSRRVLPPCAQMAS

[19] = molecular target: MAPK12 (human) (UniProt P53778)
[20] = molecular target: MYLK2 (human) (UniProt Q9H1R3)
[21] = molecular target: PAK6 (human) (UniProt Q9NQU5)
[22] = molecular target: CLK1 (human) (UniProt P49759)
CLK1 (human), sequence (P49759 whole entry, looked up): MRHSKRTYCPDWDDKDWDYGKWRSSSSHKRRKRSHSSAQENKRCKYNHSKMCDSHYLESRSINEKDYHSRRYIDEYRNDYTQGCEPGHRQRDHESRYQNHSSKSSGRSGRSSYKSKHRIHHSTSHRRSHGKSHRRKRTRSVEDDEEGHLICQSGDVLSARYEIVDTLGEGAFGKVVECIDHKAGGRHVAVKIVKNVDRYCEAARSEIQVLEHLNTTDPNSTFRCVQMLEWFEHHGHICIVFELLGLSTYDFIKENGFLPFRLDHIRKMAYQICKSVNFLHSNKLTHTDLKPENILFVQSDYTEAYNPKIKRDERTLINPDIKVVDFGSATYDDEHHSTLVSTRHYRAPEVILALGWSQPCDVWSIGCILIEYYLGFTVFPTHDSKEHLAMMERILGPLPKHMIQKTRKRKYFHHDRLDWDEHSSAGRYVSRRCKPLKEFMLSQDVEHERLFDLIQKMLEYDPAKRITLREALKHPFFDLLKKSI

[23] = molecular target: PDGFRA (human) (UniProt P16234)
[24] = molecular target: SLK (human) (UniProt Q9H2G2)
[25] = molecular target: MAPK11 (human) (UniProt Q15759)
[26] = molecular target: NEK9 (human) (UniProt Q8TD19)
[27] = molecular target: MELK (human) (UniProt Q14680)
[28] = molecular target: CAMK2D (human) (UniProt Q13557)
CAMK2D (human), sequence (Q13557 whole entry, looked up): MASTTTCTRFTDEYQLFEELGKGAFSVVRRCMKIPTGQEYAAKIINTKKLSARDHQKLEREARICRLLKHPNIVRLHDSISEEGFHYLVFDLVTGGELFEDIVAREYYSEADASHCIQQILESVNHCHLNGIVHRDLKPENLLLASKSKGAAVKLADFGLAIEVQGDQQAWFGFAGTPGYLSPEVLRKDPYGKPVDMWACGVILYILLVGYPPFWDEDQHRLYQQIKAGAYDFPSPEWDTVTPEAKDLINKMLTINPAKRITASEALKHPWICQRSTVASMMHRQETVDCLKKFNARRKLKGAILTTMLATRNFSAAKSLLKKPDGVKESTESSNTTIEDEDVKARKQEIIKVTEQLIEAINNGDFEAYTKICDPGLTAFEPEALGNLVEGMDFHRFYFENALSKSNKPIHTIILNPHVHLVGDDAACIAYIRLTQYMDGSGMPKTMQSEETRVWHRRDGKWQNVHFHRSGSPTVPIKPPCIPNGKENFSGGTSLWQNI

[29] = molecular target: LYN (human) (UniProt P07948)
[30] = molecular target: CAMK1D (human) (UniProt Q8IU85)
[31] = molecular target: PAK7 (human) (UniProt Q9P286)
[32] = molecular target: MYO3B (human) (UniProt Q8WXR4)
[33] = molecular target: MERTK (human) (UniProt Q12866)
[34] = molecular target: CSNK1D (human) (UniProt P48730)
[35] = molecular target: MARK3 (human) (UniProt P27448)
[36] = molecular target: CDK9 (human) (UniProt P50750)
[37] = molecular target: BMPR2 (human) (UniProt Q13873)
[38] = molecular target: RPS6KA4 KD2 (human) (UniProt O75676)
[39] = molecular target: STK4 (human) (UniProt Q13043)
[40] = molecular target: CAMK2G (human) (UniProt Q13555)
CAMK2G (human), sequence (Q13555 whole entry, looked up): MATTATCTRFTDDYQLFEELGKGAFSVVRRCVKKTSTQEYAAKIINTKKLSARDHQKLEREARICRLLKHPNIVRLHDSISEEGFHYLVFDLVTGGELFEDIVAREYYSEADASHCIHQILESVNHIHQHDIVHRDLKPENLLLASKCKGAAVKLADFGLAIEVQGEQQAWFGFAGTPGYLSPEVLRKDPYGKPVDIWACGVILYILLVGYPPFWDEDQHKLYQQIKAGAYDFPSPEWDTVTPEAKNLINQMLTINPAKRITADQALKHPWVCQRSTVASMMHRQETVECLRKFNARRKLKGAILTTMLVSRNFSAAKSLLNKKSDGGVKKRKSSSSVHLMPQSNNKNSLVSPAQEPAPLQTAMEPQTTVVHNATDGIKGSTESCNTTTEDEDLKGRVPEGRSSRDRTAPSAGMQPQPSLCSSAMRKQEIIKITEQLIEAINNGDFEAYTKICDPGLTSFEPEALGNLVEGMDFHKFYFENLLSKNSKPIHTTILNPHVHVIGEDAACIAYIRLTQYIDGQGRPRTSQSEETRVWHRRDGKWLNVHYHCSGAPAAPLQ

INSRR (human), sequence (P14616 whole entry, looked up): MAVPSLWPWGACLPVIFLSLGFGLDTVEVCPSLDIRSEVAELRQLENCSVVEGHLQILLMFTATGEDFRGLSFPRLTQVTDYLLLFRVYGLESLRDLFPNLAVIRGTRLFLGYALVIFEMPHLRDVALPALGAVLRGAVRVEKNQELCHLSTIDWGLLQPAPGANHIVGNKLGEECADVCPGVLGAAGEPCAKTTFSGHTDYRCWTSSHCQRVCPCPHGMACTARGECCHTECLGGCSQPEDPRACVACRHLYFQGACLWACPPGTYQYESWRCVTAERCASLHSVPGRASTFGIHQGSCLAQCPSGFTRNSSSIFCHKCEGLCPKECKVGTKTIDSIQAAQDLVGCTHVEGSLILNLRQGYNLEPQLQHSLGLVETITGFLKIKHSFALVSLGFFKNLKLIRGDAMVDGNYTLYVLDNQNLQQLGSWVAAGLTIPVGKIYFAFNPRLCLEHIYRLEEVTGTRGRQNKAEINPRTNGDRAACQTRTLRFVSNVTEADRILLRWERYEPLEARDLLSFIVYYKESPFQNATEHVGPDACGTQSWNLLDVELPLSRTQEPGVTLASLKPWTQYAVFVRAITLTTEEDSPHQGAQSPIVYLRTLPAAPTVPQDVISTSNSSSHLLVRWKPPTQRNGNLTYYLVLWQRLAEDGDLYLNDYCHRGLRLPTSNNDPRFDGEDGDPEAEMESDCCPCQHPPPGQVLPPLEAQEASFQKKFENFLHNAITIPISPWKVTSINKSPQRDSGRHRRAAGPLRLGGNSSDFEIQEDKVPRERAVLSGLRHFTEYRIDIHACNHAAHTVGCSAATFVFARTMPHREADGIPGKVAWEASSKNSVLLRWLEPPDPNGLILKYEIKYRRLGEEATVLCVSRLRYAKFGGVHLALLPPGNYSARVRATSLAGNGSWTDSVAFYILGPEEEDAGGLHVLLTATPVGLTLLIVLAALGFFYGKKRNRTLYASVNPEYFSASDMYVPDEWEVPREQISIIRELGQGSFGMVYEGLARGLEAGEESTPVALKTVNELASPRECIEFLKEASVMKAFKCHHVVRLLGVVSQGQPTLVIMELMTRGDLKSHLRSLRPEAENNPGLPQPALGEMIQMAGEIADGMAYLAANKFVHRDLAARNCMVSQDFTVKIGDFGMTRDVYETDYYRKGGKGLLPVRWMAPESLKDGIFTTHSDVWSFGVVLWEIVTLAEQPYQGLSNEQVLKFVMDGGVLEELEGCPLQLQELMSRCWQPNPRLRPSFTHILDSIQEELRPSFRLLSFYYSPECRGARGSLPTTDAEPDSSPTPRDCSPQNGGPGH

Compound: CN(C)C/C=C/C(=O)Nc1cccc(Nc2ncc3c(n2)N(C)c2ccccc2C(=O)N3C)c1
- kinase still bound, per cent of control [1]: 100%
- kinase still bound, per cent of control [2]: 82%
- kinase still bound, per cent of control [3]: 90%
- kinase still bound, per cent of control [4]: 69%
- kinase still bound, per cent of control [5]: 100%
- kinase still bound, per cent of control [6]: 0.5%
- kinase still bound, per cent of control [7]: 88%
- kinase still bound, per cent of control [8]: 85%
- kinase still bound, per cent of control [9]: 93%
- kinase still bound, per cent of control [10]: 6.7%
- kinase still bound, per cent of control [11]: 74%
- kinase still bound, per cent of control [12]: 91%
- kinase still bound, per cent of control [13]: 39%
- kinase still bound, per cent of control [14]: 0.85%
- kinase still bound, per cent of control [15]: 2.2%
- kinase still bound, per cent of control [16]: 82%
- kinase still bound, per cent of control [17]: 71%
- kinase still bound, per cent of control [18]: 9.2%
- kinase still bound, per cent of control [19]: 83%
- kinase still bound, per cent of control [20]: 46%
- kinase still bound, per cent of control [21]: 66%
- kinase still bound, per cent of control [22]: 50%
- kinase still bound, per cent of control [23]: 100%
- kinase still bound, per cent of control [24]: 7.3%
- kinase still bound, per cent of control [25]: 89%
- kinase still bound, per cent of control [26]: 93%
- kinase still bound, per cent of control [27]: 43%
- kinase still bound, per cent of control [28]: 62%
- kinase still bound, per cent of control [29]: 52%
- kinase still bound, per cent of control [30]: 59%
- kinase still bound, per cent of control [31]: 36%
- kinase still bound, per cent of control [32]: 100%
- kinase still bound, per cent of control [33]: 46%
- kinase still bound, per cent of control [34]: 52%
- kinase still bound, per cent of control [35]: 10%
- kinase still bound, per cent of control [36]: 100%
- kinase still bound, per cent of control [37]: 71%
- kinase still bound, per cent of control [38]: 70%
- kinase still bound, per cent of control [39]: 49%
- kinase still bound, per cent of control [40]: 46%

Compound: CCN1CCN(Cc2ccc(Nc3ncc4c(n3)N(C)c3ccccc3C(=O)N4C)cc2C(F)(F)F)CC1
- kinase still bound, per cent of control [1]: 100%
- kinase still bound, per cent of control [2]: 92%
- kinase still bound, per cent of control [3]: 100%
- kinase still bound, per cent of control [4]: 8.9%
- kinase still bound, per cent of control [5]: 92%
- kinase still bound, per cent of control [6]: 68%
- kinase still bound, per cent of control [7]: 89%
- kinase still bound, per cent of control [8]: 100%
- kinase still bound, per cent of control [9]: 100%
- kinase still bound, per cent of control [10]: 20%
- kinase still bound, per cent of control [11]: 78%
- kinase still bound, per cent of control [12]: 100%
- kinase still bound, per cent of control [13]: 5.4%
- kinase still bound, per cent of control [14]: 3%
- kinase still bound, per cent of control [15]: 0%
- kinase still bound, per cent of control [16]: 93%
- kinase still bound, per cent of control [17]: 52%
- kinase still bound, per cent of control [18]: 8.7%
- kinase still bound, per cent of control [19]: 97%
- kinase still bound, per cent of control [20]: 88%
- kinase still bound, per cent of control [21]: 79%
- kinase still bound, per cent of control [22]: 86%
- kinase still bound, per cent of control [23]: 100%
- kinase still bound, per cent of control [24]: 2.4%
- kinase still bound, per cent of control [25]: 82%
- kinase still bound, per cent of control [26]: 72%
- kinase still bound, per cent of control [27]: 75%
- kinase still bound, per cent of control [28]: 69%
- kinase still bound, per cent of control [29]: 61%
- kinase still bound, per cent of control [30]: 76%
- kinase still bound, per cent of control [31]: 81%
- kinase still bound, per cent of control [32]: 100%
- kinase still bound, per cent of control [33]: 48%
- kinase still bound, per cent of control [34]: 32%
- kinase still bound, per cent of control [35]: 11%
- kinase still bound, per cent of control [36]: 100%
- kinase still bound, per cent of control [37]: 91%
- kinase still bound, per cent of control [38]: 100%
- kinase still bound, per cent of control [39]: 72%
- kinase still bound, per cent of control [40]: 81%

Compound: Nc1ccc(-c2ccc3ncc4ccc(=O)n(-c5cccc(C(F)(F)F)c5)c4c3c2)cn1
- kinase still bound, per cent of control [1]: 100%
- kinase still bound, per cent of control [2]: 71%
- kinase still bound, per cent of control [3]: 99%
- kinase still bound, per cent of control [4]: 100%
- kinase still bound, per cent of control [5]: 59%
- kinase still bound, per cent of control [6]: 100%
- kinase still bound, per cent of control [7]: 100%
- kinase still bound, per cent of control [8]: 100%
- kinase still bound, per cent of control [9]: 100%
- kinase still bound, per cent of control [10]: 92%
- kinase still bound, per cent of control [11]: 88%
- kinase still bound, per cent of control [12]: 60%
- kinase still bound, per cent of control [13]: 63%
- kinase still bound, per cent of control [14]: 83%
- kinase still bound, per cent of control [15]: 14%
- kinase still bound, per cent of control [16]: 100%
- kinase still bound, per cent of control [17]: 100%
- kinase still bound, per cent of control [18]: 100%
- kinase still bound, per cent of control [19]: 87%
- kinase still bound, per cent of control [20]: 100%
- kinase still bound, per cent of control [21]: 100%
- kinase still bound, per cent of control [22]: 12%
- kinase still bound, per cent of control [23]: 62%
- kinase still bound, per cent of control [24]: 100%
- kinase still bound, per cent of control [25]: 83%
- kinase still bound, per cent of control [26]: 100%
- kinase still bound, per cent of control [27]: 50%
- kinase still bound, per cent of control [28]: 85%
- kinase still bound, per cent of control [29]: 100%
- kinase still bound, per cent of control [30]: 100%
- kinase still bound, per cent of control [31]: 69%
- kinase still bound, per cent of control [32]: 87%
- kinase still bound, per cent of control [33]: 87%
- kinase still bound, per cent of control [34]: 63%
- kinase still bound, per cent of control [35]: 100%
- kinase still bound, per cent of control [36]: 93%
- kinase still bound, per cent of control [37]: 100%
- kinase still bound, per cent of control [38]: 100%
- kinase still bound, per cent of control [39]: 100%
- kinase still bound, per cent of control [40]: 95%
